Values quoted from earlier work, collected in patent US12036216B2 (TAHO Pharmaceuticals Ltd., priority 2021, dated 2024).
Structures can show the parent of a compound that is named as a salt. Where two headings read alike, the source gives them in different places.

Key:
[1] = pellets taken without the capsule shell compared with the intact capsule formulation
[2] = not given; remark: listed apart in the source
[3] = not given; remark: listed apart in the source
factor Xa = conditions: dog; read-out: IC50 for anti-factor Xa activity
prothrombin time (PT) [4] = conditions: rat; read-out: apparent Ki for PT
prothrombin time (PT) [5] = conditions: dog; read-out: apparent Ki for PT
prothrombin time (PT) [6] = conditions: chimpanzee; read-out: apparent Ki for PT
[7] = not given; remark: listed apart in the source
[8] = immediate release tablet formulation

| increase of oral bioavailability [1] | SMILES | Renal clearance as share of systemic clearance (rat) | absolute oral bioavailability (rat) | clearance (CL) (rats) | steady-state volume of distribution (Vd) (rats) | Renal clearance as share of systemic clearance ([2]; dog) | absolute oral bioavailability ([2]; dog) | clearance (CL) ([2]; dogs) | steady-state volume of distribution (Vd) ([2]; dogs) | Renal clearance as share of systemic clearance ([3]; chimpanzee) | absolute oral bioavailability ([3]; chimpanzee) | clearance (CL) ([3]; chimpanzees) | steady-state volume of distribution (Vd) ([3]; chimpanzees) | IC50 (factor Xa) | Ki (prothrombin time (PT) [4]) | Ki (prothrombin time (PT) [5]) | Ki (prothrombin time (PT) [6]) | time to peak apixaban plasma concentration ([7]; after oral administration in healthy adults) | bioavailability ([7]; oral) | dissolved within 30 minutes [8] |
| --- | --- | --- | --- | --- | --- | --- | --- | --- | --- | --- | --- | --- | --- | --- | --- | --- | --- | --- | --- | --- |
| 75% | CCCCCCOC(=O)NC(=N)c1ccc(NCc2nc3cc(C(=O)N(CCC(=O)OCC)c4ccccn4)ccc3n2C)cc1 [dabigatran etexilate mesylate] | – | – | – | – | – | – | – | – | – | – | – | – | – | – | – | – | – | – | – |
| – | COc1ccc(-n2nc(C(N)=O)c3c2C(=O)N(c2ccc(N4CCCCC4=O)cc2)CC3)cc1 [apixaban, Apixaban] | […] | […] | […] | […] | […] | […] | ~0.67 mL/min/kg | ~0.2 L/kg | […] | […] | […] | ~0.17 L/kg | […] | ~1.7 µM | ~6.6 µM | ~4.8 µM | […] | […] | at least 80% |
